The test system of test [1] is CHO-K1. In words: Counterscreen for antagonists of the orexin 1 receptor (OX1R; HCRTR1): Homogeneous time resolved fluorescence (HTRF)-based cell-based dose response assay to identify antagonists of the parental CHO-K1 cell line. [Related pubchem assays (depositor defined):AID434989, AID435008, AID463079, AID485270, AID492963, AID492964, AID492965, AID493232, AID504699, AID504701]. In kind it is functional. Particulars: Cricetulus griseus. In general terms: The purpose of a counterscreen is to sort out artefacts and off-target activity.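 Note: potency for inhibition of ATP-stimulated IP1 production as antagonists.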

Test [2] is described as follows: Counterscreen for antagonists of the orexin 1 receptor (OX1R; HCRTR1): Fluorescence-based cell-based high throughput dose response assay to identify antagonists of the parental CHO cell line. [Related pubchem assays (depositor defined):AID434989, AID435008, AID463079, AID485270, AID492963, AID492964, AID492965, AID493232, AID504699, AID504701]. In kind it is functional.

Test [3] concerns the target T1, Orexin/Hypocretin receptor type 1 (Homo sapiens, UniProt O43613).
T1 sequence (O43613 whole entry): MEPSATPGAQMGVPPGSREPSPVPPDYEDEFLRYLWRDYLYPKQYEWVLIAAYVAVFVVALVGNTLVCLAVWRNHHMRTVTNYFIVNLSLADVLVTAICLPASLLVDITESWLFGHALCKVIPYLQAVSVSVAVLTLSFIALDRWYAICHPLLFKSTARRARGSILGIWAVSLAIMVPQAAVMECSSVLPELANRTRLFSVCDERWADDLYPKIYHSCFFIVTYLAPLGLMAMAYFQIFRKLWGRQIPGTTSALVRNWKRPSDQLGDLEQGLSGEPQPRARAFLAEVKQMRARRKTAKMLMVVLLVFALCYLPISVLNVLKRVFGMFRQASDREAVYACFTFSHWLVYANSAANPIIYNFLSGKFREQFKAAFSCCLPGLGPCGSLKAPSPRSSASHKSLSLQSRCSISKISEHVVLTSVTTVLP
Kind of test: Homogeneous Time Resolved Fluorescence (HTRF)-based cell-based high throughput dose response assay for antagonists of the orexin 1 receptor (OX1R; HCRTR1). [Related pubchem assays (depositor defined):AID434989, AID435008, AID463079, AID485270, AID492963, AID492964, AID492965, AID493232, AID504717, AID504718]. In kind it is functional. Background: TR-FRET usually uses a lanthanide donor and a delayed reading to cut background.

The target in test [4] is T1, Orexin/Hypocretin receptor type 1. In words: Fluorescence-based cell-based high throughput dose response assay for antagonists of the orexin 1 receptor (OX1R; HCRTR1). [Related pubchem assays (depositor defined):AID434989, AID435008, AID463079, AID485270, AID492963, AID492964, AID492965, AID493232, AID504717, AID504718]. In kind it is functional.
The target of test [5] is T2, Orexin receptor type 2 (Homo sapiens, UniProt O43614).
T2 sequence (O43614 whole entry): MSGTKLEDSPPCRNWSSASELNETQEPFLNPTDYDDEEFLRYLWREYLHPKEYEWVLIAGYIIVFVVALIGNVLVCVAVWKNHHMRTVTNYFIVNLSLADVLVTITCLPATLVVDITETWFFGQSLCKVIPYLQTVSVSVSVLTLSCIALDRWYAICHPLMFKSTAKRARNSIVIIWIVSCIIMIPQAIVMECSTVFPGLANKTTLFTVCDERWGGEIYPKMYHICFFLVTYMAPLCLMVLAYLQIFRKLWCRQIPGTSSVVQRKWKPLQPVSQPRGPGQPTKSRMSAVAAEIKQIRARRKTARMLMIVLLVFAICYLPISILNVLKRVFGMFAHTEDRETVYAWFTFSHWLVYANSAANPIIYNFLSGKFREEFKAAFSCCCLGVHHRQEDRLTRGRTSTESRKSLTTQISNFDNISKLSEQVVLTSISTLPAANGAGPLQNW
Kind of test: Counterscreen assay for antagonists of the orexin 1 receptor (OX1R; HCRTR1): Fluorescence-based cell-based dose response assay for antagonists of the orexin 2 receptor (OX2R; HCRTR2), run by assay provider. In kind it is functional.

In test [6] the target is T2, Orexin receptor type 2. In words: Counterscreen assay for antagonists of the orexin 1 receptor (OX1R; HCRTR1): Homogeneous Time Resolved Fluorescence (HTRF)-based cell-based dose response assay for antagonists of the orexin 2 receptor (OX2R; HCRTR2), run by assay provider. In kind it is functional.
Test [7] concerns the target Potassium voltage-gated channel subfamily KQT member 2 (Rattus norvegicus, UniProt O88943). In words: blockers of KCNQ2 channel current – cell-based, automated electrophysiology, set II, rat KCNQ2, dose response (AID 588637). In kind it is functional.
Test [8] is described as follows: Luminescence Cell-Based Dose Confirmation HTS to Identify Activators of 5'UTR Stem-Loop Driven Alpha-Synuclein mRNA Translation in H4 Neuroglioblastoma Cells. [Related pubchem assays: 1829 (Project Summary), 1814 (Primary HTS)]. In kind it is functional.
A short description of test [9]: Luminescence Cell-Based Dose Response HTS to Identify Activators of Luciferase Translation or Activity in H4 […] Cells. [Related pubchem assays: 1829 (Project Summary), 1814 (Primary HTS)]. In kind it is functional.
Test [10] relates to H4. In words: Luminescence Cell-Based Dose Response HTS to Identify Activators of 5'UTR Stem-Loop Driven Prion Protein mRNA Translation in H4 Neuroglioblastoma Cells. [Related pubchem assays: 1829 (Project Summary), 1814 (Primary HTS)]. In kind it is functional. Conditions: Homo sapiens.
Test [11] has as its target Melanocortin receptor 4 (Homo sapiens, UniProt P32245). Kind of test: inhibitors of MC4R cAMP signaling – cell-based, TR-FRET, biased antagonists, dose response (AID 602298).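 Note: antagonist potency against agonist-stimulated cAMP production.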 In kind it is functional.
A short description of test [12]: cAMP pathway inhibition in counterscreen cell line – TR-FRET cAMP detection, counter-screen for MC4R biased antagonist project, dose response (AID 602305).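 Note: U2OS cells stimulated with forskolin near its EC80 as the cAMP inducer; potency is for inhibition of forskolin-stimulated cAMP signaling.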 In kind it is functional, cell-based.
A short description of test [13]: inhibition of ARNT PAS-B/TACC3 complex formation – biochemical, AlphaScreen, cherry-picked samples, confirmation (AID 651703).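 Note: His-tagged ARNT PAS-B domain paired with GST-TACC3 E629A dimer coactivator fragment; potency of inhibitors that break up the complex and lower AlphaScreen signal.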 In kind it is functional, Homo sapiens.

Active and inactive are the calls of the source.

Potassium voltage-gated channel subfamily KQT member 2, sequence (O88943 whole entry): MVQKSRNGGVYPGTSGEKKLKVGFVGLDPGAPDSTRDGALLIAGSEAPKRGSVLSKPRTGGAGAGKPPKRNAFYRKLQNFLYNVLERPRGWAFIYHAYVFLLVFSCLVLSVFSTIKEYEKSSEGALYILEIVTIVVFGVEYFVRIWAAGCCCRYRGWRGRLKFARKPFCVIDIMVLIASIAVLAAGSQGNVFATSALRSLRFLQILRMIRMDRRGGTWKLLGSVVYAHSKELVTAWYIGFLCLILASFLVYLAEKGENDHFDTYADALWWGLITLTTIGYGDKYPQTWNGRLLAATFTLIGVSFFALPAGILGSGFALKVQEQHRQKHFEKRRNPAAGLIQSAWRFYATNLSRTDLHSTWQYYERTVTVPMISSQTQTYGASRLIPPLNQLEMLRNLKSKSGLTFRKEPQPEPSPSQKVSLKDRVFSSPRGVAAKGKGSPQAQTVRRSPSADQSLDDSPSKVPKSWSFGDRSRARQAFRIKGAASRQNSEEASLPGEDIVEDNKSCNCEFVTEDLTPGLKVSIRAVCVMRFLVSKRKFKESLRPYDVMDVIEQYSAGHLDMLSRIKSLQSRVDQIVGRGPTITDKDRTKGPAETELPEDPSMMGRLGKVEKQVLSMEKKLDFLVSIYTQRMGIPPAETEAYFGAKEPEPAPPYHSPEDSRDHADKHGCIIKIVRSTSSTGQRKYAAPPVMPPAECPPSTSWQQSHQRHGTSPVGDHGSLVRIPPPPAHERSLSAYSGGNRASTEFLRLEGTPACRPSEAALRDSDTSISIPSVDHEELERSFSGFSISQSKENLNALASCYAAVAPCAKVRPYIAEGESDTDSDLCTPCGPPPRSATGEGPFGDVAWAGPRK
Melanocortin receptor 4, sequence (P32245 whole entry): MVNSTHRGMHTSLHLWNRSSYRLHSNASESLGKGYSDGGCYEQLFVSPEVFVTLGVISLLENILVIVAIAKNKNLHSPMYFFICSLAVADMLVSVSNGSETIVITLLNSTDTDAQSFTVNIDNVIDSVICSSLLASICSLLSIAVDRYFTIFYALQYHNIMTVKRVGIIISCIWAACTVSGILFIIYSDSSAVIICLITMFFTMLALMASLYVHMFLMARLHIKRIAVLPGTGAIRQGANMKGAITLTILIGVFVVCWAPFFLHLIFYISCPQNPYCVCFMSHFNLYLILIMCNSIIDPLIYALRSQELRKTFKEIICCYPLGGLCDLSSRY

As for `CCN(CC)c1ccc(NC(=O)c2cc3ccccc3o2)c(C)c1`, the IC50 in test [1] is > 66.2 µM (inactive); in test [2] it was > 49.8 µM (inactive); in test [3] it was 2.43 µM (active); in [4], > 49.8 µM (inactive); in test [5] it was > 88.8 µM (inactive); in test [6], > 50 µM (inactive).

With `COc1cccc(-c2nc(CS(=O)(=O)CC(=O)NC3CCCc4ccccc43)c(C)o2)c1` (centres undefined), in [7], the IC50 was 0.869 µM (active).

As to `CSc1nc2ccc3nc(NC(=O)c4ccccc4)sc3c2s1`, the half-maximal effective concentration (EC50) is 43.8 µM (active) in [8], 38.3 µM (active) in [9] and > 120 µM (not active) in test [10]. The IC50 is > 66.2 µM (inactive) in test [1]; > 49.7 µM (inactive) in test [2]; 1.13 µM (active) in test [3]; 2.05 µM (active) in [4]; > 88.8 µM (inactive) in test [5]; > 50 µM (inactive) in [6].

Take `Sc1nnc(-c2ccc3ccccc3n2)n1-c1cc(Cl)cc(Cl)c1`: the IC50 in test [11] and in [12] was > 64.6 µM (inactive) each time.

Consider `COc1cccc(CNC(=O)COC(=O)c2ccc(C(=O)c3ccccc3)cc2)c1`, for which the AC50 in [13] is 79.3 µM (active).

As a reminder, the IC50 is the concentration that inhibits the measured activity by half. For orientation: EC50 means the concentration needed to bring the measured effect to its halfway point. Usually AC50 stands for the concentration giving half of the maximal activity seen.

The values are drawn from ChEMBL document CHEMBL1201862, “PubChem BioAssay data set” (2004).
